Test: xn = mol fraction of the nth substance listed
Conditions: 100 kPa, Liquid; for viscosity: Concentric cylinders viscometry; for mass density: Vibrating tube method

CCOP(=O)([O-])OCC.CCn1cc[n+](C)c1 [1-ethyl-3-methylimidazolium diethyl phosphate] + O
Conditions | mass density [kg/m3] | viscosity [mPa·s]
293.15 K, x2 = 0.012 | 1151.2 | 540
293.15 K, x2 = 0.061 | 1151.7 | 513
293.15 K, x2 = 0.123 | 1152.1 | 487
293.15 K, x2 = 0.183 | 1152.4 | 462
293.15 K, x2 = 0.259 | 1153 | 422
293.15 K, x2 = 0.502 | 1154.6 | 202
293.15 K, x2 = 0.765 | 1150.2 | 51.1
293.15 K, x2 = 0.88 | 1124 | 12.5
303.15 K, x2 = 0.012 | 1144.2 | 274
303.15 K, x2 = 0.061 | 1144.7 | 262
303.15 K, x2 = 0.123 | 1145.2 | 250
303.15 K, x2 = 0.183 | 1145.5 | 238
303.15 K, x2 = 0.259 | 1146.1 | 219
303.15 K, x2 = 0.502 | 1147.8 | 111
303.15 K, x2 = 0.765 | 1143.1 | 31.2
303.15 K, x2 = 0.88 | 1116.7 | 8.35
313.15 K, x2 = 0.012 | 1137.4 | 154
313.15 K, x2 = 0.061 | 1137.9 | 148
313.15 K, x2 = 0.123 | 1138.4 | 141
313.15 K, x2 = 0.183 | 1138.7 | 135
313.15 K, x2 = 0.259 | 1139.3 | 125
313.15 K, x2 = 0.502 | 1141.1 | 65.8
313.15 K, x2 = 0.765 | 1135.9 | 20.3
313.15 K, x2 = 0.88 | 1109.2 | 5.91
323.15 K, x2 = 0.012 | 1130.7 | 94
323.15 K, x2 = 0.061 | 1131.2 | 90.2
323.15 K, x2 = 0.123 | 1131.7 | 86.4
323.15 K, x2 = 0.183 | 1132 | 83.1
323.15 K, x2 = 0.259 | 1132.6 | 76.5
323.15 K, x2 = 0.502 | 1134.3 | 40.7
323.15 K, x2 = 0.765 | 1128.6 | 14
323.15 K, x2 = 0.88 | 1101.7 | 4.38
333.15 K, x2 = 0.012 | 1124.1 | 61.2
333.15 K, x2 = 0.061 | 1124.6 | 58.8
333.15 K, x2 = 0.123 | 1125 | 56.2
333.15 K, x2 = 0.183 | 1125.4 | 54.3
333.15 K, x2 = 0.259 | 1126 | 49.3
333.15 K, x2 = 0.502 | 1127.4 | 27.6
333.15 K, x2 = 0.765 | 1121.2 | 10.1
333.15 K, x2 = 0.88 | 1094 | 3.36
343.15 K, x2 = 0.012 | 1117.5 | 42.1
343.15 K, x2 = 0.061 | 1118 | 40.4
343.15 K, x2 = 0.123 | 1118.4 | 38.6
343.15 K, x2 = 0.183 | 1118.8 | 37.4
343.15 K, x2 = 0.259 | 1119.3 | 34.1
343.15 K, x2 = 0.502 | 1120.5 | 19.6
343.15 K, x2 = 0.765 | 1113.8 | 7.58
343.15 K, x2 = 0.88 | 1086.1 | 2.67
353.15 K, x2 = 0.012 | 1111 | 30.2
353.15 K, x2 = 0.061 | 1111.5 | 29
353.15 K, x2 = 0.123 | 1111.9 | 27.7
353.15 K, x2 = 0.183 | 1112.1 | 26.9
353.15 K, x2 = 0.259 | 1112.7 | 24.5
353.15 K, x2 = 0.502 | 1113.7 | 14.4
353.15 K, x2 = 0.765 | 1106.3 | 5.88
353.15 K, x2 = 0.88 | 1078.1 | 2.18
363.15 K, x2 = 0.012 | 1104.5 | 22.5
363.15 K, x2 = 0.061 | 1104.9 | 21.6
363.15 K, x2 = 0.123 | 1105.2 | 20.6
363.15 K, x2 = 0.183 | 1105.6 | 20
363.15 K, x2 = 0.259 | 1106.1 | 18.3
363.15 K, x2 = 0.502 | 1106.8 | 11.2
363.15 K, x2 = 0.765 | 1098.7 | 4.69
363.15 K, x2 = 0.88 | 1070 | 1.83
373.15 K, x2 = 0.012 | 1098.2 | 17.3
373.15 K, x2 = 0.061 | 1098.5 | 16.5
373.15 K, x2 = 0.123 | 1098.9 | 15.8
373.15 K, x2 = 0.183 | 1099.1 | 15.3
373.15 K, x2 = 0.259 | 1099.6 | 14.1
373.15 K, x2 = 0.502 | 1099.9 | 8.9
373.15 K, x2 = 0.765 | 1091.2 | 3.83
373.15 K, x2 = 0.88 | 1061.9 | 1.55

Source: the NIST ThermoML archive (doi:10.1021/acs.jced.7b00788)
